Laboratory results as given in patent US20200129528A1, “METHODS FOR TREATING BLOOD PRESSURE CONDITIONS USING AMINOSTEROL COMPOSITIONS” (Enterin, Inc., priority 2018, published 2020).
Values joined by “and” are separate entries in the source; they are usually repeats but may differ in a detail not shown here. Equal entries are not always repeated. Where two headings read alike, the source gives them in different places.

Tests used:
[1] = test system: patients with PD and constipation; assay: Systolic blood pressure in Stage 2 of the clinical study; type: in vivo, human; details: for change of blood pressure in subjects with high blood pressure / change of blood pressure in subjects with low blood pressure: Stage 2, post medication / fixed dose versus baseline
From the text: Subjects in Stage 2 of the clinical study described in Example 1 had their systolic blood pressure measured at various points during the clinical study. […]

[2] = test system: patients with PD and constipation; assay: Phase 2 trial: adverse events in all 44 dosed patients; type: in vivo, human
Description: Fifty patients were enrolled and 44 were dosed. In Stage 1, 10 patients were dosed, 1 (10%) withdrew prior to completion and 9 (90%) completed dosing. In stage 2, 6 (15%) patients had ≥3 CSBM/week at the end of the run-in period and were excluded, 34 patients were dosed and bowel response was assessable in 31 (91%). Two patients (5.8%) were terminated prior to completion because of recurrent dizziness, and 3 others withdrew during dosing (8.8%): 2 because of diarrhea and 1 because of holiday. Fifteen patients were randomized.
Most AEs were confined to the GI tract (88% in Stage 1 and 63% in Stage 2). The most common AE was nausea which occurred in 4/10 (40%) patients in Stage 1 and in 18/34 (52.9%) in Stage 2 (Table 2). Diarrhea occurred in 4/10 (40%) patients in Stage 1 and 15/34 (44%) in Stage 2. One patient withdrew because of recurrent diarrhea. Other GI related AEs included abdominal pain 11/44 […], flatulence 3/44 (6.8%), vomiting 3/44 (6.8%), worsening of acid reflux 2/44 (4.5%), and worsening of hemorrhoids 1/44 (2.2%). […] The only other noteworthy AE was dizziness 8/44 (18%). Dizziness was graded as moderate in one patient who was receiving an alpha-adrenergic blocking agent (Terazosin). This patient was withdrawn from the study and recovered spontaneously.

[3] = parameters: species or system rats; details: rat, in vivo
[4] = test system: patients with PD and constipation; assay: Neurological (CNS) symptoms in Stage 2: UPDRS, MMSE, PDHQ, BDI-II; type: in vivo, human; details: for patients in whom hallucinations or delusions improved or disappeared during treatment: 6 patients with hallucinations (5) or delusions (1) at baseline
From the text: (8) Beck Depression Inventory (BDI-II);
(9) Unified Parkinson's Disease Rating Scale (UPDRS), which consists of 42 items in four subscales (Part I=Non-Motor Aspects of Experiences of Daily Living (nM-EDL) (1.1 cognitive impairment, 1.2 hallucinations and psychosis, 1.3 depressed mood, Part II=Motor Aspects of Experiences of Daily Living (M-EDL), Part III=Motor Examination, and Part IV=Motor Complications;
(10) Mini Mental State Examination (MMSE);
(12) The University of Miami Parkinson's Disease Hallucinations Questionnaire (UM-PDHQ);
Exploratory end-points, in addition to constipation, included for example, (i) depression assessed using the Beck Depression Inventory (BDI-II) (Steer et al. 2000) and Unified Parkinson's Disease Rating Scale (UPDRS); (ii) cognition assessed using the Mini Mental State Examination (MMSE) (Palsteia et al. 2018), Unified Parkinson's Disease Rating Scale (UPDRS), and Trail Making Test (TMT); (iii) sleep and REM-behavior disorder (RBI)) using a daily sleep diary, I-Button Temperature Assessment, a REM sleep behavior disorder (RBD) questionnaire (RBDQ) (Stiasny-Kolster et al. 2007), and the UPDRS; (iv) hallucinations assessed using the PD hallucinations questionnaire (PDHQ) (Papapetropoulos et al. 2008), the UPDRS, and direct questioning; (v) fatigue using the Parkinson's Disease Fatigue Scale (PFS-16) and the UPDRS; (vi) motor functions using the UPDRS; and (vii) non-motor functions using the UPDRS.
Assessments were made at baseline and at the end of the fixed dose and washout periods. Circadian system status was evaluated by continuously monitoring wrist skin temperature (Thermochron iButton DS1921H; Maxim, Dallas) following published procedures (Sarabia et al. 2008).
An exploratory analysis was done with respect to the sleep data, the body temperature data, mood, fatigue, hallucinations, cognition and other motor and non-motor symptoms of PD. Continuous measurements within a subject were compared with a paired t-test and continuous measurements between subject groups were compared with a two-group t-test. Categorical data were compared with a chi-squared test or a Fisher's exact test if the expected cell counts are too small for a chi-squared test.

[5] = parameters: species or system dogs; details: dog, in vivo
[6] = test system: patients with PD and constipation; assay: Phase 2 trial Stage 2: adverse events; type: in vivo, human
Description: In Stage 2, 34 patients were evaluated. […] This dose was then maintained (“fixed dose”) fir an additional 3-5 days.

[7] = Stage 2, individual subjects, one line per subject

Which “BP at FD-V4 pre dose” value [1, 7] does the source give for CC(C)[C@@H](CC[C@@H](C)[C@H]1CC[C@H]2[C@@H]3[C@H](O)C[C@H]4C[C@@H](NCCCNCCCCN)CC[C@]4(C)[C@H]3CC[C@]12C)OS(=O)(=O)O (single isomer, unassigned) [ENT-01, squalamine] here?
The value was 122 and 147 and 144 and 154 and 115 and 110 (2×) and 138 and 130 and 121 and 113.

And the “BP at V4 + 2 hrs post dose” value [1, 7]?
Its value is 113 and 163 and 138 and 105 and 11 and 132 (2×) and 126 and 131 and 115.

What about the “final BP- v3, mean” value ([1]; Stage 2, mean of series, initial mean 133.4219, p=0.011638) of the same compound?
The value was 126.3.

What about the “change of blood pressure in subjects with high blood pressure” value [1] of the same compound?
The value was “decreased blood pressure”.

What about the “change of blood pressure in subjects with low blood pressure” value [1] of the same compound?
The value was “increased blood pressure”.

And the “change of blood pressure in subjects with high blood pressure” value ([1]; listed as aminosterol)?
The value was “lower blood pressure”.

What about the “change of blood pressure in subjects with low blood pressure” value ([1]; listed as aminosterol) of the same compound?
The value was “higher blood pressure”.

And the “outcome of all other AEs” value ([2]; human, in vivo)?
Its value is “resolved spontaneously without discontinuation”.

And the “lower GI bleed (serious adverse event), relation to drug” value ([2]; one patient, during the withdrawal period, on aspirin, naproxen and clopidogrel)?
Its value is “unrelated to study medication”.

And the oral bioavailability [3]?
Its oral bioavailability is “limited bioavailability”.

And the “absorption from the intestine” value ([3]; po)?
The value was “low”.

And the “time without return of hallucinations/delusions after discontinuation” value ([4]; 1 patient)?
The value was 4 weeks.

And the “patients in whom hallucinations or delusions improved or disappeared during treatment” value [4]?
The value was “five”.

What about the “patients in whom hallucinations or delusions improved or disappeared during treatment” value ([4]; listed as aminosterol) of the same compound?
Its value is “five and 5 of 6”.

And the “patients in whom hallucinations or delusions improved or disappeared during treatment” value ([4]; listed as squalamine (ENT-01))?
Its value is 5 of 6.

What about the “time without return of hallucinations/delusions after discontinuation” value ([4]; another patient) of the same compound?
Its value is 2 weeks.

And the oral bioavailability [5]?
The oral bioavailability was “limited bioavailability”.

And the “patients who withdrew during dosing because of diarrhea” value ([6]; Stage 2)?
The value was 2.

What about the “Difficulty falling asleep, mild” value ([6]; Stage 2, 34 dosed) of the same compound?
The value was 1(3)^ n, %.

And the “Eye infection, mild” value ([6]; Stage 2, 34 dosed)?
The value was 1(3)^ n, %.

What about the “Flatulence, mild” value ([6]; Stage 2, 34 dosed) of the same compound?
Its value is 1(3)^ n, %.

And the “Urinary retention, mild” value ([6]; Stage 2, 34 dosed)?
Its value is 1(3)^ n, %.

What about the “Urinary tract infection, mild” value ([6]; Stage 2, 34 dosed) of the same compound?
The value was 1(3)^ n, %.

What about the “Worsening hemorrhoid, mild” value ([6]; Stage 2, 34 dosed) of the same compound?
The value was 1(3)^ n, %.
